The subject of data set [1] is well-differentiated NET of non-pancreatic gastrointestinal or unknown origin. Put plainly: Tumor response by investigator (RECIST version 1.1), PFS and OS. It is filed as in vivo, human. From the text: Tumors were restaged by the principal investigator at each site using computed tomography (CT), positron emission tomography (PET)-CT, or magnetic resonance imaging scans after every 2 cycles through cycle 6, and every 3 cycles thereafter, using Response Evaluation Criteria In Solid Tumors (RECIST) version 1.1 criteria for response.
This phase 1/2 study was not powered for inferential statistics and mostly descriptive statistics were used. All patients dosed with CC-223 were included in the safety analysis. The efficacy analysis included all patients completing at least one cycle of drug who had both baseline and one post-baseline tumor efficacy assessment, unless otherwise specified. Categorical baseline variables including tumor type-specific characteristics were summarized using frequency counts and percentage. Continuous demographic and baseline characteristic variables were summarized by descriptive statistics. A Wilcoxon signed rank test was used to analyse change from baseline in serum hormone levels at selected scheduled visits.
Best overall tumor response by investigator assessment was summarized using frequency tabulation. Waterfall plots were used to show best percentage change from baseline in the sum of length (longest diameter) of target lesions.
Relationship between PFS and NET-specific assessments such as serum hormone levels and carcinoid symptoms were investigated. The Kaplan-Meier estimate of median PFS with its two-sided 95% confidence interval [CI] was provided for each baseline category of the selected biomarkers. Kaplan-Meier plots of PFS were created by category. The raw P value of the log rank test comparing survival distribution of PFS between categories was also provided.

For data set [2], the system named is human carcinoid xenografts that secrete serotonin. On the set-up: method as in PMID 28864682. Conditions: mice bearing human carcinoid xenografts; cited from earlier work. For orientation: In xenograft studies the graft and the host belong to different species.
Details of data set [3]: method as in doi:10.1200/jco.2013.31.15_suppl.2606. Conditions: non-small cell lung cancer and hepatocellular carcinoma cohorts dosed at 45 mg; cited from earlier work.

Where “and” joins values, the source holds several entries; their conditions need not be identical. Equal entries are not always repeated.

Regarding `CO[C@H]1CC[C@H](N2C(=O)CNc3ncc(-c4ccc(C(C)(C)O)nc4)nc32)CC1` [CC-223], in data set [1] (1 of 41 evaluable patients, investigator assessment), the “Progressive disease (PD)” value came to 2.4%. Further, the “Partial response (PR)” value in data set [1] (3 of 41 evaluable patients, investigator assessment) is 7% and 7.3%. The “Objective response rate (CR+PR)” value in data set [1] (41 evaluable patients, 95% CI 1.5–19.9%) was determined as 7.3%. The “Disease control rate (CR+PR+SD)” value in data set [1] (41 evaluable patients, 95% CI 76.9–97.3%) is 90% and 90.2%. For the same compound, the “Complete response (CR)” value in data set [1] (41 evaluable patients, investigator assessment) is “no patient”. Besides, the “Patients with tumor shrinkage of any magnitude relative to baseline” value in data set [1] (95% CI 57.1–85.8%) is listed as 73.2%. For the same compound, in data set [1] (ad hoc exploratory analysis, 95% CI 35.6–104.4), the “Median PFS in patients without carcinoid symptom improvement” value is 48.1 weeks and 48 weeks. Moreover, the “Median PFS in patients with carcinoid symptom improvement” value in data set [1] (ad hoc exploratory analysis, 95% CI 72.6–not estimable) was 108.4 weeks and 108 weeks. In addition, the PFS rate in data set [1] (at 6 months) is listed as 85%. In addition, the PFS rate in data set [1] (at 10 months) was determined as 64%. Moreover, the OS rate in data set [1] (at 48 weeks) was 0.97. Besides, in data set [1] (in vivo), the “Duration of SD (min–max)” value fell in the range of 50 to 1519 days, the “Median duration of SD” value is recorded as 297 days and the “Patients with duration of SD longer than a year” value worked out at 17 patients. In data set [1] (treated population), the “Median OS” value is recorded as “not assessable”. The “Median progression-free survival (PFS)” value in data set [1] (treated population, 95% CI 10.4–28.5 months) was 19.5 months. For the same compound, the “Volume of tumors that progressed on rapamycin, after treatment” value in data set [2] is reported as “remained stable or decreased in volume from baseline”. Further, the “Patients with dose reductions” value in data set [3] was > 50%.

(Values after paper PMC6748410, “A phase 2 study of an oral mTORC1/mTORC2 kinase inhibitor (CC-223) for non-pancreatic neuroendocrine tumors with or without carcinoid symptoms” (PLoS ONE, 2019).)
